{
  "source": "patent US20240158339A1",
  "about": "“TYRAMINE CONTAINING HYDROXYCINNAMIC ACID AMIDE DERIVATIVES AND METHODS OF USE THEREOF” (Brightseed, Inc., priority 2018, published 2024)",
  "key": {"[1]": {"test": "Hepatic microsome stability assay, rat", "format": "in vitro ADME", "conditions": "for % Remaining: rat microsomes", "protocol": "Hepatic Microsome Assay. Hepatic microsomes stability assays were performed in accordance with known methods (Peddibhotla, et al. (2013) ACS Med. Chem. Lett. 4:846-851). Briefly, 3 μL of 25 μM compound solution in acetonitrile were incubated with 123 μL of mouse, human or rat liver microsomes (Xenotech, Kansas City, KS). After preincubation at 37° C. for 10 minutes, enzyme reactions were initiated by adding 120 !at of NADPH-generating system (2 mM NADP+, 10 mM glucose-6-phosphate, 0.4 U/ml glucose-6-phosphate dehydrogenase, and 5 mM MgCl2) in the presence of 100 mM potassium phosphate buffer (pH 7.4). […] The microsomal concentrations used were 1.0 mg/mL. Compounds were incubated in microsomes for 0, 5, 15, 30 and 60 minutes. The reactions were stopped by the addition of ice cold ACN and the reaction mixtures were centrifuged at 10,000 g for 10 minutes before the supernatant was removed for analysis. A 10 μL portion of the resulting extract was injected on a Thermo HPLC system equipped with PAL CTC plate sampler (96-well plate), Dionex Ultimate 3000 binary pump (flow rate at 0. 600 mL/min), Dionex Ultimate 3000 thermostatted column compartment (temperature at 40° C.), Thermo Endura Mass Spectrometer (ESI source), using a Thermo Scientific Accucore C18 (2.6 μM, 2.1×50 mm) column. A gradient was run starting at 95% H2O (0.1% formic acid) and 5% ACN (0. 1% formic acid) during the first 0. 5 min, then under gradient condition of 5-100% ACN (0.1% formic acid) from minute 0. 5 to 3.5, finishing at 95% H2O (0.1% formic acid) and 5% ACN (0.1% formic acid) over 0.5 min, with another 1 min at 95:5 to re-equilibrate."}, "T6PNE cells": {"test_system": "T6PNE cells", "test": "Lipid clearance (steatosis assay) in T6PNE cells", "format": "cell-based", "protocol": "T6PNE cells were pretreated for 1 day with 0.06 mM, 0.12 mM or 0.25 mM palmitate at which time 15 μM N-trans-caffeoyltyramine or control (DMSO) was added. Cells were harvested on day 3, 6 and 8 and subjected to staining with Nile Red and […]. Results are expressed as fold change in Nile Red staining: +palmitate/10% FBS medium (no palmitate).\nLipid Clearance in HepG2 and T6PNE Cells (Steatosis Assay). The steatosis assay was carried out as described (Kiselyuk, et al. (2012) Chem. Biol. 19(7):806-818) with the exception of the drug concentration, which was 20 μM for N-trans-caffeoyltyramine with 0.25 mM palmitate in HepG2 cell lines, and 10 μM of either N-trans-caffeoyltyramine, N-trans-caffeoyltyramine, or p-coumaroyltyramine, with 0.25 mM palmitate in T6PNE cell lines. Steatosis was assessed using the Oil Red O Method for Fats kits (Poly Scientific; Warrington, PA), per manufacturer's guidelines. Briefly, frozen tissue slides or fixed cells were incubated in neat propylene glycol for 2 minutes and Oil Red O solution for […] for slides or 1 hour for fixed cells, differentiated in 85% propylene glycol solution for 1 minute, washed twice with distilled water and stained in Hematoxylin of 10 seconds. Slides were mounted with glycerin jelly mounting medium."}, "in vivo": {"test": "in vivo", "conditions": "male, C57BL/6, mouse", "method": "Bioavailability Determinations.\nA blood sample from each mouse was drawn at 0.25, 0.5, 1, 2, 4, 6 and 24 hours after administration. An 8μL aliquot of blood was used for analysis. After adding 200 μL of an internal standard comprising 100 ng/mL Labetalol, 100 ng/mL dexamethasone, 100 ng/mL tolbutamide, 100 ng/mL Verapamil, 100 ng/mL Glyburide, and 100 ng/mL Celecoxib in ACN, the mixture was vortex-mixed and centrifuged at 12000 rpm for 15 minutes at 4° C. to pellet precipitated protein. Four μL at of the supernatant was injected for LC-MS/MS analysis. Bioavailability (%) was calculated using AUC0-inf(% AUCExtra<20%) or AUC0-last, (% AUCExtra >20%) with nominal dose."}, "HNF4α": {"biological_target": "T1, HNF4α (Homo sapiens, UniProt P41235)", "T1 construct": "T6PNE cells (Kiselyuk, et al. (2012) Chem. Biol. 19(7):806-818; Kiselyuk, et al. (2010) J. Biomol; endogenous in cells; host or cells: T6PNE cells", "T1 sequence (P41235 1-474)": "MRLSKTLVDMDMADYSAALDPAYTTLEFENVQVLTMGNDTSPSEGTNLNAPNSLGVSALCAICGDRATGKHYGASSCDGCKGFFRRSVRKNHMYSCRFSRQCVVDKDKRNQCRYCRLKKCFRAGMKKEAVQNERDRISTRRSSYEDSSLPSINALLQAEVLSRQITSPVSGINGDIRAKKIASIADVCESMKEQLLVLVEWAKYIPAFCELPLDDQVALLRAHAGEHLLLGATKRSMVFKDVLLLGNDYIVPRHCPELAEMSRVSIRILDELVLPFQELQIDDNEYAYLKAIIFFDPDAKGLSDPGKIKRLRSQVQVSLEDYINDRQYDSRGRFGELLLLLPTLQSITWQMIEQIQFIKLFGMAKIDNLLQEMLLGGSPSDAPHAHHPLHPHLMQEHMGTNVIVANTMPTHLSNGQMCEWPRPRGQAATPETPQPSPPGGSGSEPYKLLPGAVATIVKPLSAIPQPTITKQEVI", "test": "Insulin promoter activity assay (HNF4α assay) in T6PNE cells", "format": "cell-based", "protocol": "Insulin Promoter Activity. T6PNE cells (Kiselyuk, et al. (2012) Chem. Biol. 19(7):806-818; Kiselyuk, et al. (2010) J. Biomol. Screen 15(6):663-70) are seeded at 2000 cells per well in 384-well tissue culture plates in the presence of 1 μM tamoxifen and 0.03 mM palmitate. After a 24-hour incubation, a compound of the invention is added to the cells. Forty-eight hours after compound addition, cells are fixed in 4% paraformaldehyde and stained with DAPI. Blue (DAPI) and green (human insulin promoter driving GFP) channels are imaged.\nInhibition of HNF4α GFP Expression. Using the insulin promoter assay described herein, activity of HNF4α was assessed in the presence of BI-6015 (0, 2.5, 5 μM), a known antagonist of HNF4α (Kiselyuk, et al. (2012) Chem. Biol. 19(7):806-818), in combination with N-trans-caffeoyltyramine (0, 5, 10, 20 μM).\nGiven the role of HNF4α in maintaining a health metabolism in humans, test compounds were screened for activity as HNF4α agonists (either direct or indirect effects). Using a known insulin promoter-reporter assay Kiselyuk and colleagues (2010. J. Biomol. Screen 15(6):663-70) screened a library of compounds for activity to promote insulin activation. […] The OTC promoter is known to be responsive to HNF4α in transient transfection assays (Inoue, et al. (2002) J. Biol. Chem. 277:25257-65).\nPlant compounds in the top 10th percentile of similarity to the 18 target structures were selected and compounds predicted to be potential agonists of HNF4α activity given their chemical structural features were screened in the HNF4α assay."}},
  "note": "“Also recorded” adds a separate entry of the source.",
  "data": [
    {"smiles": "O=C(/C=C/c1ccc(O)c(O)c1)NCCc1ccc(O)cc1", "note": "[N-trans-caffeoyltyramine]", "values": [
      {"measurement": "half-life at 1 μM", "setting": "[1]; liver microsomes, pH 7.4, 1 μM", "result": 2.1, "unit": "min"},
      {"measurement": "microsomal CLint at 1 μM", "setting": "[1]; liver microsomes, pH 7.4, 1 μM, read-out: Clearance Rate", "result": 674, "unit": "µL/min/mg"},
      {"measurement": "half-life at 10 μM", "setting": "[1]; liver microsomes, pH 7.4, 10 μM", "result": 22.4, "unit": "min"},
      {"measurement": "microsomal CLint at 10 μM", "setting": "[1]; liver microsomes, pH 7.4, 10 μM, read-out: Clearance Rate", "result": 30.9, "unit": "µL/min/mg"},
      {"measurement": "% Remaining", "setting": "[1]; 1 μM", "result": 0.6, "unit": "%"},
      {"measurement": "% Remaining", "setting": "[1]; 10 μM", "result": 33.6, "unit": "%"},
      {"measurement": "lipid accumulation when palmitate was added prior to compound", "setting": "T6PNE cells; T6PNE cells pretreated 1 day with 0.06-0.25 mM palmitate, 15 μM compound, Nile Red, FIG. 6", "result": "reduced lipid accumulation; also recorded: can reverse fat accumulation"},
      {"measurement": "fat accumulation", "setting": "T6PNE cells; T6PNE cells, 0.25 mM palmitate, 10 μM compound", "result": "inhibition of fat accumulation"},
      {"measurement": "bioavailability", "setting": "in vivo", "result": "~11", "unit": "%"},
      {"measurement": "potency in activating HNF4α relative to Alverine", "setting": "HNF4α; FIG. 1, dose-response, insulin promoter activity", "result": "roughly an order-of-magnitude more potent than Alverine"},
      {"measurement": "HNF4α activation / bioactivity (screening result in words)", "setting": "HNF4α; HNF4α assay, screening and SAR statements", "result": "able to act as HNF4α modulators"}
    ]}
  ]
}
